Data on 21 compounds can be found in patent publication US7799775B2, “Pyrimidine derivatives” (ASKA Pharmaceutical Co., Ltd., priority 2004, dated 2010).

The structures appear in SMILES notation.

The target in assay [1] is T1, 5-HT1A receptor (Rattus norvegicus, UniProt P19327).
T1 construct: from tissue; host or cells: whole animal (SD male rats), behavioural read-out
T1 sequence (P19327 1-422): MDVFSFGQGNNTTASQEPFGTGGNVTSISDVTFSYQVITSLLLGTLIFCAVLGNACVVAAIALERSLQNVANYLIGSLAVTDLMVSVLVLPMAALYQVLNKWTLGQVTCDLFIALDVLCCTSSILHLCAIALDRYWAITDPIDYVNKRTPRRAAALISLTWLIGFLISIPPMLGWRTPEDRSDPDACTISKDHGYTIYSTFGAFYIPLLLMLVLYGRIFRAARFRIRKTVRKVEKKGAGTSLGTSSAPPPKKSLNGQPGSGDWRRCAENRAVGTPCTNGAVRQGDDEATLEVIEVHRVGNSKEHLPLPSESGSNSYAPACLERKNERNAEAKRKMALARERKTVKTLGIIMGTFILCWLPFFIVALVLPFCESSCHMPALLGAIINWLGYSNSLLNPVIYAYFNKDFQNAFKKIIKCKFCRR
The assay is described as follows: Measurement of 5-HT1A receptor agonistic action on rats (in vivo): lower lip retraction and flat body posture. To be noted: SD male rats, 10 mg/kg intraperitoneal; maximum of group evaluation points, 4 grades 0-3, observed 5-30 min after administration. The procedure:
(3) Measurement of 5-HT1A Receptor Agonistic Action on Rats (in Vivo):
Seven weeks old SD male rats were divided into 4-5 rats per group which were accustomized to the experimental environments twice. A week after the second accustomization, the rats were put into a transparent plastic case, and 10 mg/kg of a test compound (as dissolved in 1N-hydrochloric acid and diluted with suitable amount of saline) was intraperitoneally administered thereto. Immediately before the administration and 5, 10, 20 and 30 minutes after the administration, behaviors of the rats were observed as to lower lip retraction (LLP) and flat body posture (FBP). The results were evaluated in 4 grades (0: no reaction, 1: feeble reaction, 2: medium reaction, 3: maximum reaction).

The target in assay [2] is T2, 5-HT3 receptor (Rattus norvegicus, UniProt P35563).
T2 construct: from tissue; host or cells: whole animal (SD male rats), serotonin-induced bradycardia
T2 sequence (P35563 24-483): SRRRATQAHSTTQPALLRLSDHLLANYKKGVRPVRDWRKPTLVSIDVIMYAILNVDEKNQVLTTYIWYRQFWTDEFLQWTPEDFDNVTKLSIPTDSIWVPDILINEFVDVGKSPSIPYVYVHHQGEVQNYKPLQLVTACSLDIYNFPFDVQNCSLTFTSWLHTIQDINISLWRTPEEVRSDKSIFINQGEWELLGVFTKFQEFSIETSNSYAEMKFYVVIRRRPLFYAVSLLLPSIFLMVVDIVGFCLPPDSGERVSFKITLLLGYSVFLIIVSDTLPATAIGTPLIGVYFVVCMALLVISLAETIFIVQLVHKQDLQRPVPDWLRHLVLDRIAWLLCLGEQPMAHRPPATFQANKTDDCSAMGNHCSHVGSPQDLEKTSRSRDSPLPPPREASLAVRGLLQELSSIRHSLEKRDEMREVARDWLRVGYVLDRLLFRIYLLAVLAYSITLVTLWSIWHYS
The assay is described as follows: Measurement of 5-HT3 receptor antagonistic action on rats (in vivo): inhibition of serotonin-induced bradycardia (BJ reflex). The settings on record: anesthetized SD male rats, serotonin 300 μg/kg 10 minutes later. As to the method: (4) Measurement of 5-HT3 Receptor Antagonistic Action on Rats (in Vivo)
SD male rats (weighing 270-410 g) were anesthetized by peritoneal administration of 1.25 g/kg of urethane (as dissolved in distilled water), and then catheters for measuring blood pressure and heart rate were inserted into their left carotid artery and a catheter for administration of test compound was inserted into their […]. After their blood pressure and heart rate were stabilized, 300 μg/kg of 5-hydroxytryptamine creatinine sulfate (serotonin) was rapidly intravenously administered and thereby induced transient bradycardiac reaction (BC 1) was observed. When the blood pressure and heart rate were re-stabilized after the serotonic administration, the test compounds were intravenously administered to the rats. Ten minutes thereafter, 300 μg/kg of serotonin was once again rapidly intravenously administered and thereby induced transient bradycardiac reaction (BC 2) was observed. Percent inhibition of bradycardia manifestation of each test compound, i.e., BJ reflex inhibition, can be calculated according to the following expression: […]

Regarding `Clc1ccc2ccnc(N3CCNCC3)c2c1` [Production Example 49, 7-chloro-1-piperazin-1-ylisoquinoline], in assay [1], the “5-HT1A Receptor Agonistic Action on Rats, FBP” value is on record as 1.8 and the “5-HT1A Receptor Agonistic Action on Rats, LLR” value was 2.2. Besides, the “BC Inhibition (%)” value in assay [2] (dose 1.0 mg/kg intravenous) turned out to be 96.8%.
Turning to `c1cc2ccoc2c(N2CCN3CCC[C@H]3C2)n1` [Production Example 102, 7-((8aS)-octahydropyrrolo[1,2-a]pyrazin-2-yl)furo[2,3-c]-pyridine], in assay [1], the “5-HT1A Receptor Agonistic Action on Rats, FBP” value worked out at 3.0 and the “5-HT1A Receptor Agonistic Action on Rats, LLR” value was 3.0. Besides, the “BC Inhibition (%)” value in assay [2] (dose 3.0 mg/kg intravenous) stood at 61.5%.
Regarding `Cn1c(CCCCN2CCN(c3ccc4ccccc4n3)CC2)nc2ccccc2c1=O` [Example 7-20, 3-methyl-2-[4-(4-quinolin-2-ylpiperazin-1-yl)butyl]-3H-quinazolin-4-one], in assay [1], the “5-HT1A Receptor Agonistic Action on Rats, FBP” value amounted to 1.8 and the “5-HT1A Receptor Agonistic Action on Rats, LLR” value came to 1.6. Also, the “BC Inhibition (%)” value in assay [2] (dose 0.01 mg/kg intravenous) came to 64.7%.
Turning to `c1cc2sccc2c(N2CCN3CCC[C@H]3C2)n1` [Production Example 104, 4-((8aS)-octahydropyrrolo[1,2-a]pyrazin-2-yl)thieno[3,2-c]pyridine], in assay [1], the “5-HT1A Receptor Agonistic Action on Rats, FBP” value is 0.2 and the “5-HT1A Receptor Agonistic Action on Rats, LLR” value came out at 1.6. The “BC Inhibition (%)” value in assay [2] (dose 10.0 mg/kg intravenous) is reported as 46.1%.
With `COc1ccc2ccnc(N3CCNC(C)C3)c2c1` (stereo not drawn) [Production Example 38, 7-methoxy-1-(3-methylpiperazin-1-yl)isoquinoline], the “BC Inhibition (%)” value in assay [2] (dose 1.0 mg/kg intravenous) was determined as 82.9%.
Regarding `COc1ccc2ccnc(N3CCN4CCC[C@H]4C3)c2c1` [Production Example 72, 1-((8aS)-octahydropyrrolo[1,2-a]pyrazin-2-yl)-7-methoxyisoquinoline], in assay [1], the “5-HT1A Receptor Agonistic Action on Rats, FBP” value came out at 3.0 and the “5-HT1A Receptor Agonistic Action on Rats, LLR” value amounted to 3.0. In addition, the “BC Inhibition (%)” value in assay [2] (dose 0.3 mg/kg intravenous) came to 72.5%.
On to `CN1CCN(c2nccc3ccsc23)CC1` [Production Example 6, 7-(4-methylpiperazin-1-yl)thieno[2,3-c]pyridine], for which, in assay [1], the “5-HT1A Receptor Agonistic Action on Rats, FBP” value worked out at 2.4 and the “5-HT1A Receptor Agonistic Action on Rats, LLR” value is 2.8.
On the same counts, the results for `CN1CCN(c2nccc3sccc23)CC1` [Production Example 8, 4-(4-methylpiperazin-1-yl)thieno[3,2-c]pyridine] are 0.8 and 2.0.
The like results for `Cc1cc2c(N3CCN4CCC[C@H]4C3)nccc2s1` [Production Example 107, 4-((8aS)-octahydropyrrolo[1,2-a]pyrazin-2-yl)-2-methylthieno[3,2-c]-pyridine] were, in that order, 3.0 and 2.8.
As to `Nn1c(CCCCN2CCN(c3ccc4ccccc4n3)CC2)nc2ccccc2c1=O` [Example 4-3, 3-amino-2-[4-(4-quinolin-2-ylpiperazin-1-yl)butyl]-3H-quinazolin-4-one], in assay [1], the “5-HT1A Receptor Agonistic Action on Rats, FBP” value is listed as 1.8 and the “5-HT1A Receptor Agonistic Action on Rats, LLR” value was 1.8. In addition, the “BC Inhibition (%)” value in assay [2] (dose 1.0 mg/kg intravenous) is recorded as 90.1%.
As to `c1cc2ccsc2c(N2CCN3CCC[C@@H]3C2)n1` [Production Example 108, 7-((8aR)-octahydropyrrolo[1,2-a]pyrazin-2-yl)thieno[2,3-c]pyridine], in assay [1], the “5-HT1A Receptor Agonistic Action on Rats, FBP” value was determined as 0.4 and the “5-HT1A Receptor Agonistic Action on Rats, LLR” value turned out to be 2.4.
Turning to `Nn1c(CCCCN2CCN(c3ccc4ccccc4n3)CC2)nc2ccsc2c1=O` [Example 4-18, 3-amino-2-[4-(4-quinolin-2-ylpiperazin-1-yl)butyl]-3H-thieno[3,2-d]-pyrimidin-4-one], in assay [1], the “5-HT1A Receptor Agonistic Action on Rats, FBP” value came to 2.8 and the “5-HT1A Receptor Agonistic Action on Rats, LLR” value is recorded as 2.2. The “BC Inhibition (%)” value in assay [2] (dose 0.1 mg/kg intravenous) is given as 35.6%.
Regarding `Clc1ccc2ccnc(N3CCN4CCC[C@H]4C3)c2c1` [Production Example 73, 7-chloro-1-((8aS)-octahydropyrrolo[1,2-a]pyrazin-2-yl)isoquinoline], in assay [1], the “5-HT1A Receptor Agonistic Action on Rats, FBP” value was 2.2 and the “5-HT1A Receptor Agonistic Action on Rats, LLR” value amounted to 2.4. In assay [2] (dose 0.01 mg/kg intravenous), the “BC Inhibition (%)” value turned out to be 52.2%.
For `Nn1c(CCCCN2CCN(c3ccc4ccccc4n3)CC2)nc2cccc(Cl)c2c1=O` [Example 4-25, 3-amino-5-chloro-2-[4-(4-quinolin-2-ylpiperazin-1-yl)butyl]-3H-quinazolin-4-one], in assay [1], the “5-HT1A Receptor Agonistic Action on Rats, FBP” value worked out at 1.0 and the “5-HT1A Receptor Agonistic Action on Rats, LLR” value is 0.8. Moreover, the “BC Inhibition (%)” value in assay [2] (dose 0.1 mg/kg intravenous) is on record as 49.1%.
With `c1cc2ccsc2c(N2CCN3CCC[C@H]3C2)n1` [Production Example 103, 7-((8aS)-octahydropyrrolo[1,2-a]pyrazin-2-yl)thieno[2,3-c]pyridine], in assay [1], the “5-HT1A Receptor Agonistic Action on Rats, FBP” value came out at 0.4 and the “5-HT1A Receptor Agonistic Action on Rats, LLR” value came out at 3.0. Moreover, the “BC Inhibition (%)” value in assay [2] (dose 3.0 mg/kg intravenous) was determined as 57.6%.
Regarding `CCn1c(CCCCN2CCN(c3cc(C)c4ccccc4n3)CC2)nc2c(c1=O)CCCC2` [Example 7-7, 3-ethyl-2-[4-[4-(4-methylquinolin-2-yl)piperazin-1-yl]butyl]-5,6,7,8-tetrahydro-3H-quinazolin-4-one], in assay [1], the “5-HT1A Receptor Agonistic Action on Rats, FBP” value came to 2.2 and the “5-HT1A Receptor Agonistic Action on Rats, LLR” value turned out to be 2.2. Also, in assay [2] (dose 1.0 mg/kg intravenous), the “BC Inhibition (%)” value is on record as 85.4%.
As for `Nn1c(CCCCN2CCN(c3ccc4ccccc4n3)CC2)nc2c(c1=O)CCCC2` [Example 4-1, 3-amino-2-[4-(4-quinolin-2-ylpiperazin-1-yl)butyl]-5,6,7,8-tetrahydro-3H-quinazolin-4-one], in assay [1], the “5-HT1A Receptor Agonistic Action on Rats, FBP” value worked out at 1.8 and the “5-HT1A Receptor Agonistic Action on Rats, LLR” value is reported as 1.5. Further, the “BC Inhibition (%)” value in assay [2] (dose 0.1 mg/kg intravenous) stood at 70.4%.
On to `CCn1c(CCCCN2CCN(c3ccc4ccccc4n3)CC2)nc2c(c1=O)CCCC2` [Example 7-2, 3-2-[4-(4-quinolin-2-ylpiperazin-1-yl)butyl]-5,6,7,8-tetrahydro-3H-quinazolin-4-one], for which, in assay [1], the “5-HT1A Receptor Agonistic Action on Rats, FBP” value stood at 0.4 and the “5-HT1A Receptor Agonistic Action on Rats, LLR” value is 0.2.
Regarding `Cc1cc(N2CCN(CCCCc3nc4ccccc4c(=O)n3N)CC2)nc2ccccc12` [Example 4-4, 3-amino-2-[4-[4-(4-methylquinolin-2-yl)piperazin-1-yl]butyl]-3H-quinazolin-4-one], in assay [1], the “5-HT1A Receptor Agonistic Action on Rats, FBP” value is 2.6 and the “5-HT1A Receptor Agonistic Action on Rats, LLR” value is listed as 2.8. Also, in assay [2] (dose 0.1 mg/kg intravenous), the “BC Inhibition (%)” value is 68.7%.
The like results for `Cn1c(CCCCN2CCN(c3ccc4ccccc4n3)CC2)nc2c(c1=O)CCCC2` [Example 7-1, 3-methyl-2-[4-(4-quinolin-2-ylpiperazin-1-yl)butyl]-5,6,7,8-tetrahydro-3H-quinazolin-4-one] were, in that order, 1.8, 2.2 and 90.3%.
As for `Cc1ccc2ccnc(N3CCN(C)CC3)c2c1` [Production Example 47, 7-methyl-1-(4-methylpiperazin-1-yl)isoquinoline], the “BC Inhibition (%)” value in assay [2] (dose 1.0 mg/kg intravenous) stood at 89.9%.
